From paper PMC12707362, “Targeting Aurora Kinases as Essential Cell‐Cycle Regulators to Deliver Multi‐Stage Antimalarials Against Plasmodium Falciparum” (Angewandte Chemie (International Ed. in English), 2025)
Where two headings read alike, the source gives them in different places.

Tests used:
[1] = system: P. falciparum drug-sensitive NF54 (PfNF54) asexual intra-erythrocytic parasites; experiment: SYBR Green I proliferation assay, PfNF54 asexual blood stages; assay type: cell-based, Plasmodium falciparum
Source text: Figure 1 Activity profile of Aur class anticancer inhibitors across the life cycle of Plasmodium falciparum parasites. a) Activity (IC50) of inhibitors (grouped based on specificity against human Aur) against P.falciparum drug‐sensitive (PfNF54) asexual intra‐erythrocytic parasites as measured with SYBR Green I fluorescence as an indicator of viability and proliferation. […] ABS, asexual blood stages of the parasite; HsAur, human Aur.
P. falciparum drug sensitive NF54 (PfNF54) and drug-resistant Dd2 (PfDd2, chloroquine, pyrimethamine and mefloquine resistant) strains were cultured in vitro in human O^+/A^+ erythrocytes (5% hematocrit) in complete medium at 2–5% parasitemia, 37 °C, shaking at 60 rpm under hypoxic conditions (90% N2, 5% O2 and 5% CO2). […] Gametocytogenesis was followed with daily media changes (including glucose) and ABS parasites removed with 50 mM N-acetylglucosamine (day 1–4 for stage II/III; days 3–7 for stage IV/V).
All inhibitors were dissolved in dimethyl sulfoxide (DMSO). […] Ring-stage ABS parasites (1% parasitemia, 1% hematocrit) were treated with compounds for 96 h at 37 °C with chloroquine disulphate (0.5 μM) as positive drug control. […] Luciferase activity was determined using a non-lysing D-luciferin substrate (1 mM in 0.1 M citrate buffer, pH 5.5, 100 μL) and bioluminescence was detected with a GloMax® - Multi Detection System with Instinct® software.

[2] = system: multidrug-resistant PfK1 ABS parasites; experiment: SYBR Green I proliferation assay, PfK1 asexual blood stages; assay type: cell-based; settings: Plasmodium falciparum
Experimental: (B) Antiplasmodial activity of nine anticancer aurora kinase inhibitors (selected based on their PfNF54 ABS activity) against P. falciparum multidrug-resistant ABS parasites (PfDd2 and PfK1). (C) Kinobead competitive inhibition data.
All inhibitors were dissolved in dimethyl sulfoxide (DMSO). Antiplasmodium activity of selected anti-cancer inhibitors was determined on P. falciparum NF54 and Dd2 strains, measuring SYBR Green I fluorescence (485 nm excitation, 538 nm emission) as an indicator of proliferation^[4]. Ring-stage ABS parasites (1% parasitemia, 1% hematocrit) were treated with compounds for 96 h at 37 °C with chloroquine disulphate (0.5 μM) as positive drug control. The activity of the inhibitors was tested against immature (>95% stage II/III) and late-stage (>90% stage IV/V) gametocytes using a luciferase reporter assay on 3D7elo1-pfs16-CBG99 ^[1]. […] Luciferase activity was determined using a non-lysing D-luciferin substrate (1 mM in 0.1 M citrate buffer, pH 5.5, 100 μL) and bioluminescence was detected with a GloMax® - Multi Detection System with Instinct® software.

[3] = system: synthetic β-hematin (βH) formation; experiment: NP-40 mediated cell-free β-hematin inhibition assay; assay type: biochemical; settings: cell-free NP-40, pH 4.8, 5 h
Experimental: The β-hematin inhibition assay, as described in^[30,31] was used to test the inhibitors for their ability to inhibit β-hematin formation. The test samples were prepared as 20 mM or 10 mM stock solutions in dimethyl sulfoxide (DMSO). Serial dilutions of each inhibitor (100 μL) were performed from column 12 to column 2 of a 96-well plate in triplicate, with column 1 serving as a negative control (0 μM test inhibitor). The samples were tested at a starting in-well concentration of 1000 μM (20 mM stock) or 500 μM (10 mM stock). An “NP-40 substitute” detergent was added (305.5 μM) to each well to mimic the lipophilic environment in which hemozoin formation occurs within the parasite’s digestive vacuole, in helping to mediate the formation of β-hematin. A 25 mM hematin stock was prepared by sonicating heme in DMSO and then suspending 178.8 μL of this in 1 M acetate buffer (20 mL, pH 4.8). Then, 100 μL of the hematin suspension was added to each well to a final well volume of 200 μL. The plate was then incubated for 5 hours at 37 °C. After incubation, 32 μL and 60 μL of 50% pyridine solution and acetone were added, respectively. The pyridine-ferrochrome method by^[31] was used for UV-vis analysis, with the heme-pyridine complex absorbance measured at 405 nm. Data were analysed using Microsoft Excel and GraphPad Prism v10.5 software.

[4] = Cytotoxicity counter-screening (MTT), HepG2; settings: human, HepG2 CC50, 48 h, MTT
Experimental: HepG2 and CHO cells were maintained at 37 °C, under a humidified atmosphere of 5% CO2, in DMEM high glucose media (Gibco) supplemented with 10% heat-inactivated FBS and 1% (v/v) Penicillin-Streptomycin antibiotics. […] The supernatant was discarded, and the cell pellet was resuspended in 1 mL DMEM media for cell counting by Trypan Blue. To determine the toxicity, cells were resuspended and seeded at a concentration of 1x10^4 cells/well in a 96-well plate and incubated for 24 h^[9,10]. Cells were treated in duplicate with a 10-fold serial dilution starting at 100 ug/mL of inhibitor in new media. After 48 h incubation, the viable cells were measured using the MTT tetrazolium reduction assay, where sterile 25 µL of a 5 mg/mL MTT was added to each well and incubated for 4 h before the […] formazan crystals were dissolved with 100 µL DMSO (Merck) per well. The absorbance, a measure of intracellular reduction of MTT, was measured at 540 nm (Multiskan GO). Emetine (50 µM) was included as a positive drug control, and the background was subtracted from all data before being normalised to the untreated^[9,10].

[5] = system: PfNF54 male gamete formation (exflagellation); experiment: P. falciparum Dual Gamete Formation Assay (PfDGFA), male; assay type: cell-based; settings: Plasmodium falciparum
Experimental: (§1) The Pf DGFA^[8] was performed by incubating PfNF54 gametocytes with test molecules in 384-well plates for 48 h. Gametogenesis was triggered with the addition of xanthurenic acid and a decrease in temperature. Male and female gametes were identified through fluorescent microscopy and quantified from recorded data using a custom imaging algorithm and then compared to negative (DMSO) and positive (1 µM cabamiquine) controls. Percentage inhibition was calculated, and dose-response curves were constructed in GraphPad Prism v10.5 to calculate IC50 values.

[6] = system: PfNF54 female gametes; experiment: P. falciparum Dual Gamete Formation Assay (PfDGFA), female; assay type: cell-based, Plasmodium falciparum
Experimental: as §1

[7] = Plasmodium falciparum, NF54, 96 h, read-out: Pf NF54 ABS IC50
[8] = Plasmodium falciparum, NF54, read-out: Pf NF54 ABS IC50
[9] = 48 h, read-out: Pf DGFA IC50 Male
[10] = read-out: IC50 male gamete exflagellation
[11] = multidrug-resistant K1, read-out: Pf K1 ABS IC50
[12] = Plasmodium falciparum, NF54, 96 h, ring-stage ABS, 96 h, SYBR Green I, read-out: Pf NF54 ABS IC50
[13] = Plasmodium falciparum, NF54, bounds stated in text, read-out: Pf NF54 ABS IC50
[14] = ring-stage ABS, 96 h, SYBR Green I, read-out: Pf NF54 ABS IC50
[15] = Plasmodium falciparum, 48 h, read-out: Pf DGFA IC50 Female

| SMILES | IC50 [1, 7] [µM] | IC50 [1, 8] [µM] | IC50 ([2]; K1, read-out: Pf K1 ABS IC50) [µM] | IC50 [3] [µM] | CC50 at 48 h [4] [µM] | IC50 [5, 9] [µM] | IC50 [5, 10] [µM] | IC50 [2, 11] [µM] | IC50 ([6]; Plasmodium falciparum, 48 h; read-out: Pf DGFA IC50 Female) [µM] | IC50 [1, 12] [µM] | IC50 [1, 13] [µM] | CC50 at 48 h ([4]; HepG2 cells) [µM] | IC50 [1, 14] [µM] | IC50 ([6]; 48 h; read-out: Pf DGFA IC50 Female) [µM] | IC50 [6, 15] [µM] |
| --- | --- | --- | --- | --- | --- | --- | --- | --- | --- | --- | --- | --- | --- | --- | --- |
| CCN1CCN(C(=O)Cc2ccc(Nc3ncc(F)c(Nc4ccc(C(=O)Nc5ccccc5Cl)cc4)n3)cc2)CC1 [AAi I, Aurora A Inhibitor I] | 0.475 ± 0.0901 | < 1 | 0.342 | < 20 | 5.1 | – | – | – | – | – | – | – | – | – | – |
| O=C(Nc1c[nH]nc1-c1nc2ccc(CN3CCOCC3)cc2[nH]1)NC1CC1 [AT83, AT9283] | – | – | – | – | 12.9 ± 4.5 | 0.8 | 0.786 ± 0.016 | 0.102 | > 10 | – | – | – | – | – | – |
| CCN(CCO)CCCOc1ccc2c(Nc3cc(CC(=O)Nc4cccc(F)c4)n[nH]3)ncnc2c1 [AZD-1152, AZD-1152-HQPA] | 0.753 | < 1 | – | < 20 | > 15 | – | – | 0.341 | – | – | – | – | – | – | – |
| O=C(Nc1cccc(Nc2nccc(Nc3cccc(C(F)(F)F)c3)n2)c1)C1CC1 [Aki III, Aurora kinase inhibitor III] | – | – | – | < 20 | – | – | – | 1.38 | – | 0.819 | < 1 | 18.4 | – | – | – |
| COc1cc(N2CCC(N3CCN(C)CC3)CC2)ccc1Nc1ncc(Cl)c(Nc2ccccc2S(=O)(=O)C(C)C)n1 [TAE684, NVP-TAE684] | – | – | – | 41.4 ± 2.3 | 8.8 | 0.12 | 0.116 ± 0.017 | – | – | 0.28 ± 0.013 | – | – | 0.279 | 2.26 | 2.3 ± 0.05 |
| COc1cc2c(Nc3ccc(NC(=O)c4ccccc4)cc3)ncnc2cc1OCCCN1CCOCC1 [ZM-39, ZM-447439] | – | – | – | < 20 | – | > 10 | – | 0.277 | – | < 0.25 | < 1 | > 15 | 0.235 | – | > 10 |
